≈ marks a conversion by molar mass, not a printed value. Like-named read-outs stand apart in the source and are kept apart here.
Experiments:
[1] = test system: Psuedomonas aeruginosa Walter; test: In vivo activity in mice, Pseudomonas infection; design: species or system Female NMRI mice; conditions: Mus musculus, iPSC, sc, 168 h; Pseudomonas infection i.p.; s.c. administration; per dose; observation 7 days; read-out: ED50 (dose at which 50% of the animals survived)
Procedure: (§1) A number of compounds of this invention were tested in vivo in mice against experimental infections. Bacteria E. coli ATCC 11775 and Psuedomonas aeruginosa Walter were used as pathogens. An intraperitoneal infection with 0.2 ml of a 5% suspension of the bacteria was induced. This corresponds to about 2×10^6 E. Coli germs and 8×10^5 pseudomonas germs/mouse. […] The groups with E. coli infection were treated with the test compound three times on the first day (1, 4, and 7 hours post infectionem) and for two days thereafter twice a day. The groups with the pseudomonas infection were treated with the test compound 6 times on the first day (1, 3, 6, 9, 12 and 15 hours post infectionem) and for two days thereafter twice a day. The observation time was in both cases 7 days. The results of these tests with representatives of the penicillins and cephalosporins according to the invention are shown in the following table: […]

[2] = test system: Enterbacter cloaceae ATCC 13 047; test: Serial dilution test in the microtiter system (MIC), Eb. cloaceae ATCC 13047; format: cell-based
Procedure: (§2) These tests were performed according to the method of the serial dilution test in the microtiter system. The effect of the substances on bacteriostasis was examined in a fluid medium. […] A nutrient medium of the following composition was used. 10 gm of peptone, 8 gm of meat extract-oxoid, 3 gm of sodium chloride, 2 gm of sec. sodium phosphate were diluted with distilled water to […] (pH 7.2-7.4). Only in the test against streptococci 1% of glucose was added. The age of the primary cultures was about 20 hours. The standardization of the pathogen suspension was effected by using a photometer according to "Eppendorf" (test tube dismeter 14 mm, filter 546 nm) with the aid of the turbidity of a comparison suspension consisting of barium sulfate, this suspension being prepared by addition of 3.0 ml of 1% barium chloride solution to 97 ml of 1% sulfuric acid. After the standardization, streptococcus aronson were further diluted to a concentration of 1:15 and the other microorganisms to a concentration of 1:1500 by means of a sodium chloride solution.
(§3) 16 mg of the test substance were put into a 10 ml-measuring flask and filled up to the mark with the solvent. The further dilution series was standardized with distilled water or the respective solvent.
(§4) The cavities of the microtiter plates were filled with 0.2 ml of nutrient medium. Then, 0.01 ml of the corresponding test substance dilution was added and inoculated with 0.01 ml of the standardized suspension. The bacteria were incubated at 37° C. for 18-20 hours. Control tests merely using the solvent were carried out simultaneously.
(§5) The measurement was carried out macroscopically to determine the minimal inhibitory (threshold) concentration, i.e. the lower still bacteriostatically effective concentration.
(§6) Staphylococcus aureus SG 511, Escherichia coli ATCC 11 775, Pseudomonas aeruginosa Hamburgensis and Pseudomonas aeruginosa Walter, Serratia marcescens ATCC 13880, Klebsiella pneumoniae ATCC 10 031 and 272, Proteus mirabilis Hamburgensis, Proteus rettgeri, Enterbacter cloaceae ATCC 13 047 and E. Coli R+TEM (β-lactamase carrier).

[3] = test system: Pseudomonas aeruginosa Hamburgensis; test: Serial dilution test in the microtiter system (MIC), Pseud. aerug. Hbg.; format: cell-based
Procedure: as §2, §3, §4, §5, §6

[4] = test system: Klebsiella pneumoniae ATCC 10 031; test: Serial dilution test in the microtiter system (MIC), Klebs. pneum. ATCC 10031; format: cell-based
Procedure: as §2, §3, §4, §5, §6

[5] = test system: Pseudomonas aeruginosa Walter; test: Serial dilution test in the microtiter system (MIC), Pseud. aerug. Walter; format: cell-based
Procedure: as §2, §3, §4, §5, §6

[6] = test system: Klebsiella pneumoniae 272; test: Serial dilution test in the microtiter system (MIC), Klebs. pneum. 272; format: cell-based
Procedure: as §2, §3, §4, §5, §6

[7] = test system: Escherichia coli ATCC 11 775; test: Serial dilution test in the microtiter system (MIC), E. Coli ATCC 11775; format: cell-based
Procedure: as §2, §3, §4, §5, §6

[8] = test system: Serratia marcescens ATCC 13880; test: Serial dilution test in the microtiter system (MIC), Serrat. marcesc. ATCC 13880; format: cell-based
Procedure: as §2, §3, §4, §5, §6

[9] = test system: Proteus mirabilis Hamburgensis; test: Serial dilution test in the microtiter system (MIC), Prot. mirabilis; format: cell-based
Procedure: as §2, §3, §4, §5, §6

E. coli ATCC 11775 = test: In vivo activity in mice, E. coli infection; design: species or system Female NMRI mice; conditions: Escherichia coli, ATCC11775, iPSC, sc, 168 h; E. coli infection i.p.; s.c. administration; per dose; observation 7 days; read-out: ED50 (dose at which 50% of the animals survived)
Procedure: as §1

E. Coli ATCC 9637 = test: Serial dilution test in the microtiter system (MIC), E. Coli ATCC 9637; format: cell-based; conditions: Escherichia coli, ATCC9637
Proteus rettgeri = test: Serial dilution test in the microtiter system (MIC), Prot. rettgeri; format: cell-based; conditions: Providencia rettgeri
Procedure: as §2, §3, §4, §5, §6

[10] = test system: Staphylococcus aureus SG 511; test: Serial dilution test in the microtiter system (MIC), S. aureus SG 511; format: cell-based; conditions: SG511
Procedure: as §2, §3, §4, §5, §6

[11] = Table III, Eb. cloaceae ATCC 13047, 37° C., 18-20 hours, read-out: MIC
[12] = Table III, E. Coli ATCC 9637, 37° C., 18-20 hours, read-out: MIC
[13] = Table IV, Prot. mir. Hbg., 37° C., 18-20 hours, read-out: MIC
[14] = Table IV, Prot. rettg., 37° C., 18-20 hours, read-out: MIC
[15] = Table III, Pseud. aerug. Walter, 37° C., 18-20 hours, read-out: MIC
[16] = Table III, E. Coli ATCC 11775, 37° C., 18-20 hours, read-out: MIC
[17] = ATCC13880, Table III, Serrat. marcesc. ATCC 13880, 37° C., 18-20 hours, read-out: MIC
[18] = Table III, Prot. mirabilis, 37° C., 18-20 hours, read-out: MIC
[19] = Table III, Prot. rettgeri, 37° C., 18-20 hours, read-out: MIC

SMILES	ED50 [1]	MIC [2, 11]	MIC [3]	MIC [5]	MIC [7]	MIC ([8]; ATCC13880)	MIC [9]	ED50 (E. coli ATCC 11775)	MIC (E. Coli ATCC 9637; [12])	MIC (Proteus rettgeri)	MIC [6]; 272	MIC [9, 13]	MIC (Proteus rettgeri; [14])	MIC [2]	MIC [4]	MIC [5, 15]	MIC [7, 16]	MIC [8, 17]	MIC [9, 18]	MIC (E. Coli ATCC 9637)	other results
CC1(C)S[C@@H]2[C@H](NC(=O)[C@H](NC(=O)N3CCNC3=O)c3ccccc3)C(=O)N2[C@H]1C(=O)O [Azlocillin, reference compound]	~110 mg/kg	32 µg/mL (≈ 69.3 µM)	8 µg/mL (≈ 17.3 µM)	8 µg/mL (≈ 17.3 µM)	8 µg/mL (≈ 17.3 µM)	4 µg/mL (≈ 8.67 µM)	2 µg/mL (≈ 4.33 µM)	~35 mg/kg	16 µg/mL (≈ 34.7 µM)	8 µg/mL (≈ 17.3 µM)	–	–	–	–	–	–	–	–	–	–	MIC ([4]; Table III, Klebs. pneum. ATCC 10031, 37° C., 18-20 hours, read-out: MIC): 32 µg/mL (≈ 69.3 µM); MIC ([6]; Table III, Klebs. pneum. 272, 37° C., 18-20 hours, read-out: MIC): 32 µg/mL (≈ 69.3 µM)
Cn1nnnc1SCC1=C(C(=O)O)N2C(=O)[C@@H](NC(=O)C(NC(=O)Nc3cnc(NCc4ccco4)nc3O)c3cccs3)[C@H]2SC1 (single isomer, unassigned) [M]	–	–	8 µg/mL (≈ 11.4 µM)	4 µg/mL (≈ 5.72 µM)	–	–	–	0.8 mg/kg	–	–	0.5 µg/mL (≈ 0.715 µM)	0.12 µg/mL (≈ 0.171 µM)	0.5 µg/mL (≈ 0.715 µM)	–	–	–	–	–	–	–	MIC ([8]; ATCC13880, Table IV, Serr. marcesc. ATCC 13880, 37° C., 18-20 hours, read-out: MIC): 0.5 µg/mL (≈ 0.715 µM)
CC(=O)OCC1=C(C(=O)O)N2C(=O)[C@@H](NC(=O)[C@H](NC(=O)Nc3cnc(NCc4ccco4)nc3O)c3ccc(O)cc3)[C@H]2SC1 [K]	–	–	–	8 µg/mL (≈ 12.2 µM)	–	2 µg/mL (≈ 3.06 µM)	–	–	–	–	–	0.25 µg/mL (≈ 0.382 µM)	1 µg/mL (≈ 1.53 µM)	4 µg/mL (≈ 6.12 µM)	–	–	–	–	–	–	MIC ([3]; Table IV, Pseud. aerug. Hbg., 37° C., 18-20 hours, read-out: MIC): 16 µg/mL (≈ 24.5 µM); MIC ([4]; Table IV, Klebs. pneum. ATCC 10031, 37° C., 18-20 hours, read-out: MIC): 1 µg/mL (≈ 1.53 µM); MIC ([6]; Table IV, Klebs. pneum. 272, 37° C., 18-20 hours, read-out: MIC): 1 µg/mL (≈ 1.53 µM); MIC ([7]; Table IV, E. Coli ATCC 11775, 37° C., 18-20 hours, read-out: MIC): 0.5 µg/mL (≈ 0.765 µM); MIC [10]: 1 µg/mL (≈ 1.53 µM)
CC1(C)S[C@@H]2[C@H](NC(=O)[C@H](NC(=O)Nc3cnc(NCc4cccnc4)nc3O)c3ccc(O)cc3)C(=O)N2[C@H]1C(=O)O [A, D-α-{3-[4-Hydroxy-2-(3'-pyridylmethylamino)-5-pyrimidinyl]-ureido}-p-hydroxy-benzyl-penicillin sodium]	1.2 mg/kg	–	–	–	–	–	–	0.7 mg/kg	–	–	8 µg/mL	–	–	4 µg/mL	8 µg/mL	1 µg/mL	0.5 µg/mL	0.5 µg/mL	0.12 µg/mL	0.5 µg/mL	MIC (Proteus rettgeri; [19]): 1 µg/mL
CC1(C)S[C@@H]2[C@H](NC(=O)[C@H](NC(=O)Nc3cnc(Nc4ccc(C(N)=O)s4)nc3O)c3ccc(O)cc3)C(=O)N2[C@H]1C(=O)O [B, D-α-{3-[2-(5'-Aminocarbonyl-2'-thienylamino)-4-hydroxy-5-pyrimidinyl]-ureido}-p-hydroxy-benzyl-penicillin sodium]	4.8 mg/kg	–	–	–	0.25 µg/mL	–	–	1.3 mg/kg	0.5 µg/mL	–	2 µg/mL	–	–	2 µg/mL	2 µg/mL	1 µg/mL	–	0.2 µg/mL	0.06 µg/mL	–	MIC ([3]; Table III, Pseud. aerug. Hbg., 37° C., 18-20 hours, read-out: MIC): 1 µg/mL; MIC (Proteus rettgeri; [19]): 0.5 µg/mL
CC1(C)S[C@@H]2[C@H](NC(=O)[C@H](NC(=O)Nc3cnc(NCc4cccs4)nc3O)c3ccc(O)cc3)C(=O)N2[C@H]1C(=O)O [C, D-α-{3-[4-Hydroxy-2-(2'-thienylmethylamino)-5-pyrimidinyl]-ureido}-p-hydroxy-benzyl-penicillin sodium]	2.5 mg/kg	0.5 µg/mL	2 µg/mL	1 µg/mL	–	–	0.25 µg/mL	0.8 mg/kg	–	0.12 µg/mL	2 µg/mL	–	–	–	2 µg/mL	–	0.5 µg/mL	0.5 µg/mL	–	0.5 µg/mL	–
